Reference: PMC9967118, “Influence of Mutations of Conserved Arginines on Neuropeptide Binding in the DPP III Active Site” (Molecules, 2023)
Values belong to the molecule of their own block, whether it stands above or below them.

Tests used:
[1] = target: T1, Human DPP3 wild-type (WT) (Homo sapiens, UniProt Q9NY33); experiment: Inhibition of DPP III catalyzed hydrolysis of Arg2-2NA, wild-type enzyme; type: biochemical
T1 construct: made in house; host or cells: E. coli
T1 sequence (Q9NY33 1-737): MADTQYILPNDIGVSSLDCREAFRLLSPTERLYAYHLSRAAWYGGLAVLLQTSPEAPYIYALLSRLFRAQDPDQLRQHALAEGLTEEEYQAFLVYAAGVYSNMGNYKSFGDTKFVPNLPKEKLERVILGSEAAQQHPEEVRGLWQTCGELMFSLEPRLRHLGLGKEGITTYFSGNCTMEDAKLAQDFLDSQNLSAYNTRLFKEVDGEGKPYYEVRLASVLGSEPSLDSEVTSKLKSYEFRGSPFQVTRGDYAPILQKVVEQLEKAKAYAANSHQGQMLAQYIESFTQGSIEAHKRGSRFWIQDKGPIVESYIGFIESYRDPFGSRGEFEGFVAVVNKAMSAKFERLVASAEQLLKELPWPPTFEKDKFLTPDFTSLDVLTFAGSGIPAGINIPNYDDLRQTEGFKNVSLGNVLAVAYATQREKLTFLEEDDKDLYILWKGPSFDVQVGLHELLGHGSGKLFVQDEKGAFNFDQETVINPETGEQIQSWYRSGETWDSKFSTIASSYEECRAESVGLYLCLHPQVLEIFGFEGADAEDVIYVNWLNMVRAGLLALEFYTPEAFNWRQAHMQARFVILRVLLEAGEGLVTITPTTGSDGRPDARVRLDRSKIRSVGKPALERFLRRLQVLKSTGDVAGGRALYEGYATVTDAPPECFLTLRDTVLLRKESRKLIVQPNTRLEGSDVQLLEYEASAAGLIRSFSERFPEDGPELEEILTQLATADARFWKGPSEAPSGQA
Method: (§1) Human DPP3 wild-type (WT) and variants R669A and R669M were expressed in E. coli and purified using IMAC, as described in detail recently. Briefly, variants were prepared using a QuikChange II site-directed mutagenesis kit (Agilent Technologies, Santa Clara, CA, USA) while following the manufacturer’s instructions, with the hDPP3 gene on a pET21a plasmid as template. Complementary primer pairs were ordered from Macrogen Europe (The Netherlands) with the following sequences:
(§2) Proteins were expressed in E. coli for approximately 20 h at 18 °C, shaken at 120 rpm, and paired with 0.25 mM IPTG as an expression inductor. Cell pellets were lysed with lysosyme and with sonication; the lysate was then purified with DNAse I and through centrifugation, and affinity chromatography was performed on a Rotigarose His/Ni column. Lysis, wash, and elution buffers contained imidazole at concentrations of 10 mM, 20 mM, and 300 mM, respectively, and all buffers contained 50 mM Tris pH = 8.0, 300 mM NaCl. Fractions were pooled based on protein concentration (determined by using a BioDrop microvolume spectrophotometer) and purity (assessed by SDS-PAGE), and they were desalted on a PD-10 column with 20 mM Tris-Cl buffer, pH = 7.5. Aliquots were frozen and stored at −80 °C.
(§3) Enzyme kinetics were measured using an Agilent Cary Eclipse fluorescence spectrophotometer (Agilent Technologies, Santa Clara, CA, USA) with Arg2-2NA as a substrate analog and fluorescent 2NA as the product of the peptidase reaction. The assay has been described in detail previously. Arg2-2NA and peptide in 20 mM Tris-Cl buffer pH = 7.4 were pre-incubated at 25 °C for 2 min before the reaction was started by adding the enzyme into the cuvette. Substrate concentrations ranged from 0.25 to 100 μM. The peptide (inhibitor) concentrations were chosen so the output could be easily measured. […] Three peptide concentrations were used for each peptide. The enzyme concentration was 1 nM in all measurements.

Human DPP3 variant R669A [2] = target: T2, Human DPP3 variant R669A (Homo sapiens, UniProt Q9NY33, R669A); experiment: Inhibition of DPP III catalyzed hydrolysis of Arg2-2NA, R669A variant; type: biochemical
T2 construct: made in house; host or cells: E. coli
T2 sequence (Q9NY33 1-737 R669A): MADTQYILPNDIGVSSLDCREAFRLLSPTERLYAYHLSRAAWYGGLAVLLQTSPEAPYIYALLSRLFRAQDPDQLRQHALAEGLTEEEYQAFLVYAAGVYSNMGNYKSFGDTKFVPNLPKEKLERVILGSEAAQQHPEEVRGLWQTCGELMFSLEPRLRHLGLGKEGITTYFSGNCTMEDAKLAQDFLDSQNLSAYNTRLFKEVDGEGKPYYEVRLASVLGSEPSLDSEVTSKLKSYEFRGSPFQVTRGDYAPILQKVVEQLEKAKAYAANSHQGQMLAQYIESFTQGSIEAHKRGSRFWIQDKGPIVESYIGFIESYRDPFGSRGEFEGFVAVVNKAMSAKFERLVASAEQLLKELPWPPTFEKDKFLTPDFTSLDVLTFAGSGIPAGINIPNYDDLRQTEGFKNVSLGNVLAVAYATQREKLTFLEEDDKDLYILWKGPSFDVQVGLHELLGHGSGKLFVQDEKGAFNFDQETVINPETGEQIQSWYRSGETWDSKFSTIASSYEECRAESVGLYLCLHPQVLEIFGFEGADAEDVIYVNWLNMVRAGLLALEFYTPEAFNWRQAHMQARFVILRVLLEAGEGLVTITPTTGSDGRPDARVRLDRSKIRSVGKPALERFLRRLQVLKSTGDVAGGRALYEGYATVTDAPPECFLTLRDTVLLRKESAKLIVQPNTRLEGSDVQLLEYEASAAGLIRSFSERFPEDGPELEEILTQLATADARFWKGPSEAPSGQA
Method: as §1, §2, §3

Human DPP3 variant R669M [3] = target: T3, Human DPP3 variant R669M (Homo sapiens, UniProt Q9NY33, R669M); experiment: Inhibition of DPP III catalyzed hydrolysis of Arg2-2NA, R669M variant; type: biochemical
T3 construct: made in house; host or cells: E. coli
T3 sequence (Q9NY33 1-737 R669M): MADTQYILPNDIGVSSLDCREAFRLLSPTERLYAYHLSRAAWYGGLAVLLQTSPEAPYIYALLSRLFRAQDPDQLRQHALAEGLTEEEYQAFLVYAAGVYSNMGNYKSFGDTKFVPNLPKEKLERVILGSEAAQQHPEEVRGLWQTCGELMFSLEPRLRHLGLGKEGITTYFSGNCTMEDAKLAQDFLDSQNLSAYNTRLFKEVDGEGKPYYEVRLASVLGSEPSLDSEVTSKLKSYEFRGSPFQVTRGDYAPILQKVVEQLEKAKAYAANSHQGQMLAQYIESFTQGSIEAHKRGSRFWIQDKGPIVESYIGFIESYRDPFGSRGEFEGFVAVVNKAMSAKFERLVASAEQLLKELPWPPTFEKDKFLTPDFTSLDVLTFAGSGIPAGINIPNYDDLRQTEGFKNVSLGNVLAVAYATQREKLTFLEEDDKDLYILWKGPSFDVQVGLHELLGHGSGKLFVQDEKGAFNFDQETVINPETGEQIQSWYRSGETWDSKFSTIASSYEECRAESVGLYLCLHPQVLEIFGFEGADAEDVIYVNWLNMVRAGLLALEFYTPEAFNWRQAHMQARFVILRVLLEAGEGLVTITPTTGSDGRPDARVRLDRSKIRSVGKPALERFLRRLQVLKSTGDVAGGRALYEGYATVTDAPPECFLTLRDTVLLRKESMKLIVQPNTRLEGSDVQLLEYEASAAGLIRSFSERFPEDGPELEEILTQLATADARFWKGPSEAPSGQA
Method: as §1, §2, §3

DPP III = details: human renal epithelial cells; cited from earlier work
Source text: (§4) Dipeptidyl peptidase III (DPP III, EC 3.4.14.4) is a monozinc metallopeptidase that hydrolyzes dipeptides from the N-terminus of its substrates consisting of three or more amino acids. DPP III is the only member of the M49 metallopeptidase family and the only metalloenzyme among dipeptidyl peptidases. This two-domain exopeptidase is broadly distributed in human tissues, where it participates in the final stages of protein turnover.

[4] = target: T1, Human DPP3 wild-type (WT); experiment: Michaelis–Menten test for the hydrolysis of Arg2-2NA, wild-type enzyme; type: biochemical; details: enzyme 1 nM, 20 mM Tris-Cl pH 7.4, 25 °C, best fit ± standard error
Method: as §1
as §2, with “Lysis, wash, and elution buffers contained imidazole at concentrations of 10 mM, 20 mM, and 300 mM, respectively, and all buffers contained 50 mM Tris pH = 8.0, 300 mM NaCl.” left out, “Aliquots were frozen and stored at −80 °C.” left out
(§5) Enzyme kinetics were measured using an Agilent Cary Eclipse fluorescence spectrophotometer (Agilent Technologies, Santa Clara, CA, USA) with Arg2-2NA as a substrate analog and fluorescent 2NA as the product of the peptidase reaction. […] The peptide (inhibitor) concentrations were chosen so the output could be easily measured. […]

Human DPP3 variant R669A [5] = target: T2, Human DPP3 variant R669A; experiment: Michaelis–Menten test for the hydrolysis of Arg2-2NA, R669A variant; type: biochemical; details: enzyme 1 nM, 20 mM Tris-Cl pH 7.4, 25 °C, best fit ± standard error
Method: as §1
as §2, with “Lysis, wash, and elution buffers contained imidazole at concentrations of 10 mM, 20 mM, and 300 mM, respectively, and all buffers contained 50 mM Tris pH = 8.0, 300 mM NaCl.” left out, “Aliquots were frozen and stored at −80 °C.” left out
as §5

Human DPP3 variant R669M [6] = target: T3, Human DPP3 variant R669M; experiment: Michaelis–Menten test for the hydrolysis of Arg2-2NA, R669M variant; type: biochemical; details: enzyme 1 nM, 20 mM Tris-Cl pH 7.4, 25 °C, best fit ± standard error
Method: as §1
as §2, with “Lysis, wash, and elution buffers contained imidazole at concentrations of 10 mM, 20 mM, and 300 mM, respectively, and all buffers contained 50 mM Tris pH = 8.0, 300 mM NaCl.” left out, “Aliquots were frozen and stored at −80 °C.” left out
as §5

[7] = tested on: angiotensin II-infused hypertensive mice; details: cited from earlier work
Source text: as §4

[8] = substrate 0.25–100 μM, fluorescence of 2NA

Molecule: CC(C)C[C@H](NC(=O)[C@H](Cc1ccccc1)NC(=O)CNC(=O)CNC(=O)[C@@H](N)Cc1ccc(O)cc1)C(=O)O [Leu-enkephalin]
Ki [1]: 10.4 ± 1.4 µM | Ki (Human DPP3 variant R669A [2]): 52 ± 5.3 µM | Ki (Human DPP3 variant R669M [3]): 58 ± 7 µM | effects of the R669M and R669A mutations on the Ki (Human DPP3 variant R669M [3]; R669M versus R669A): the same

Molecule: angiotensin (1–7): peptide degraded by DPP III in human renal epithelial cells (DRVYIHP; Angiotensin 1-7; UniProt P01019 25-31, looked up)
degradation by DPP III (DPP III): DPP III degrades angiotensin (1–7)

effect of mutation of R669 to Ala or Met on inhibitory properties / binding (Human DPP3 variant R669A [2]; R669A or R669M versus WT, inhibitory assays): small | kcat [4]: 3.74 ± 0.07 s⁻¹ | Km [4, 8]: 7.8 ± 0.6 µM | kcat (Human DPP3 variant R669A [5]): 2.24 ± 0.05 s⁻¹ | Km (Human DPP3 variant R669A [5]; [8]): 3.4 ± 0.3 µM | kcat (Human DPP3 variant R669M [6]): 2.26 ± 0.03 s⁻¹ | Km (Human DPP3 variant R669M [6]; [8]): 2.8 ± 0.2 µM
Molecule: Arg2-2NA

B1: DPP III: zinc exopeptidase (EC 3.4.14.4), M49 family (protein, UniProt Q9NY33 2-737, looked up)
Dipeptidyl peptidase 3: ADTQYILPNDIGVSSLDCREAFRLLSPTERLYAYHLSRAAWYGGLAVLLQTSPEAPYIYALLSRLFRAQDPDQLRQHALAEGLTEEEYQAFLVYAAGVYSNMGNYKSFGDTKFVPNLPKEKLERVILGSEAAQQHPEEVRGLWQTCGELMFSLEPRLRHLGLGKEGITTYFSGNCTMEDAKLAQDFLDSQNLSAYNTRLFKEVDGEGKPYYEVRLASVLGSEPSLDSEVTSKLKSYEFRGSPFQVTRGDYAPILQKVVEQLEKAKAYAANSHQGQMLAQYIESFTQGSIEAHKRGSRFWIQDKGPIVESYIGFIESYRDPFGSRGEFEGFVAVVNKAMSAKFERLVASAEQLLKELPWPPTFEKDKFLTPDFTSLDVLTFAGSGIPAGINIPNYDDLRQTEGFKNVSLGNVLAVAYATQREKLTFLEEDDKDLYILWKGPSFDVQVGLHELLGHGSGKLFVQDEKGAFNFDQETVINPETGEQIQSWYRSGETWDSKFSTIASSYEECRAESVGLYLCLHPQVLEIFGFEGADAEDVIYVNWLNMVRAGLLALEFYTPEAFNWRQAHMQARFVILRVLLEAGEGLVTITPTTGSDGRPDARVRLDRSKIRSVGKPALERFLRRLQVLKSTGDVAGGRALYEGYATVTDAPPECFLTLRDTVLLRKESRKLIVQPNTRLEGSDVQLLEYEASAAGLIRSFSERFPEDGPELEEILTQLATADARFWKGPSEAPSGQA
blood pressure [7]: lowering blood pressure
